Laboratory results from patent US11053250B2, “Pyrrolo[1,2-b]pyridazine derivatives” (Gilead Sciences, Inc., priority 2018, dated 2021).
pEC50, pIC50: −log10 of the molar value.

Key:
TNFα = experiment: IRAK4 Monocyte TNFα Cell Based Assay; details: cryopreserved human monocytes, LPS 50 pg/ml stimulation, TNFα by TR-FRET
Procedure: The cell suspension was then plated at a density of 5,000 cells/well onto black 384 well Greiner clear bottom plates. Plates were pre-spotted with test compounds and serially diluted in DMSO where 40 nL/well were delivered using the Echo 550 acoustic liquid dispenser (Labcyte®) for a final DMSO concentration of 0.1%. Plated cells were treated with compound for 1 hour at 37° C. Cells were then stimulated with 50 pg/ml of LPS (Sigma) excluding outside columns of plate used for unstimulated cell control wells. Cells were incubated for an additional 4 hours at 37° C. Cells were then spun out of the media and 5 μl of sample were taken and analyzed for total TNFα content using the TR-FRET Human TNFα detection system (CisBio). This system utilizes two labeled antibodies (cryptate and XL665) that bind to two different epitopes of the TNFα molecule and produce FRET signal proportional to the concentration of TNFα in the sample. Detection antibodies are mixed 50:50 and 5 μL were dispensed into each well. Plates were covered with clear seals and incubated at room temp overnight. The following morning plates were read using an Envision 2103 Multilabeled reader (PerkinElmer) with excitation/emission/FRET emission at 340 nm/615 nm/665 nm, respectively. Fluorescence intensities at 615 nm and 665 nm emission wavelengths were expressed as a ratio (665 nm/615 nm). Percent of control was calculated as follows: % Control=100×(RatioSample−Ratio0% stimulation)/(Ratio100% Stimulation−Ratio0% stimulation) where unstimulated cells (0% stimulation) were the negative control and stimulated cells (100% stimulation) were used as the positive control.

IRAK4 enzyme = IRAK4 enzyme (Homo sapiens (Human), UniProt Q9NWZ3); experiment: IRAK4 Biochemical Assay (TR-FRET/HTRF); details: 0.75 nM IRAK4, 500 μM ATP, STK1 peptide
IRAK4 enzyme, sequence (Q9NWZ3 whole entry): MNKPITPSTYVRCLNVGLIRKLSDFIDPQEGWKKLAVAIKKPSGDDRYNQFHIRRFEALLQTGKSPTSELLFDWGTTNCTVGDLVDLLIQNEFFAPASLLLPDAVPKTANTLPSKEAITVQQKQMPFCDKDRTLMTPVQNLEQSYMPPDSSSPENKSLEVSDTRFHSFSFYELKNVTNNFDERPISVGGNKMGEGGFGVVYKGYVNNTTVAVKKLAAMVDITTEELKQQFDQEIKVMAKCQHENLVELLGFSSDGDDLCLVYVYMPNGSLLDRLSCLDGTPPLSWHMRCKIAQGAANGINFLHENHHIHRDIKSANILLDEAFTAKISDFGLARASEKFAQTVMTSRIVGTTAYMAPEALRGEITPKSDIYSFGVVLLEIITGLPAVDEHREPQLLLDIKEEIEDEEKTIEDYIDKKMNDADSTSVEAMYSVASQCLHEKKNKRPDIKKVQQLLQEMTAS
Procedure: IRAK4 enzyme (Carna Biosciences, Chuo-ku, Kobe, Japan) activity was measured by detecting phosphorylated peptide substrate formation using an antibody against the phosphorylated peptide substrate. This is a time-resolved fluorescence resonance energy transfer (TR-FRET) immunoassay, based on the STK1 KinEASE Assay (Cisbio, Bedford, Mass.). The assay was designed as a simple two-step, endpoint assay (a 5 μl enzyme reaction followed by 5 μl stop and detect Solution) performed in ProxiPlate-384 Plus plates (Perkin Elmer, Waltham, Mass.). Staurosporine, a non-selective kinase inhibitor was used as a positive control. Compounds diluted in DMSO were spotted into 384 well plates using a Labcyte® Echo 550 Liquid Handling System prior to addition of IRAK4 enzyme and peptide substrate. Reaction solutions were delivered using a Multi-Flo (Bio-Tek Instruments). The enzyme and peptide solution was incubated with compound for 15 minutes at room temp before the reaction was initiated by the addition of ATP. The standard 5 μl reaction mixture contained 500 μM ATP, 2 μM peptide (STK1 Peptide), 0.75 nM of IRAK4 in reaction buffer (50 mM HEPES, pH 7.0, 0.02% NaN3, 0.01% BSA, 0.1 mM Orthovanadate, 5 mM MgCl2, 0.025% NP-40, 1 mM DTT). After 120 min of incubation at room temperature, 5 μl of Stop and Detect Solution (1:100 Cryptate labeled anti-phosphorylated peptide antibody solution and 125 nM Tracer in a 50 mM HEPES pH 7.0 detection buffer containing sufficient EDTA) was added. The plate was then further incubated for 60 minutes at room temperature and read on Envision 2103 Multilabeled reader (PerkinElmer) with excitation/emission/FRET emission at 340 nm/615 nm/665 nm, respectively. Fluorescence intensities at 615 nm and 665 nm emission wavelengths were expressed as a ratio (665 nm/615 nm). Percentage of inhibition was calculated as below: % Inhibition=100×(RatioSample−Ratio0% Inhibition)/(Ratio100% Inhibition−Ratio0% Inhibition)
The 0% inhibition value comes from control wells lacking inhibitor. The 100% inhibition value comes from control wells containing a saturating amount of known inhibitor staurosporine.

| pEC50 (TNFα; Monocyte) | pIC50 (IRAK4 enzyme) | pEC50 (TNFα) | Compound |
| --- | --- | --- | --- |
| 6.79 | 8.70 |  | CC(C)Nc1cc(-c2ccc3cc(C#N)cnn23)ncc1-c1cn(C)nn1 [Compound 55, 7-(4-(isopropylamino)-5-(1-methyl-1H-1,2,3-triazol-4-yl)pyridin-2-yl)pyrrolo[1,2-b]pyridazine-3-carbonitrile] |
|  | > 9.00 | 7.74 | COC(=O)NC[C@H]1C[C@H](Nc2cc(-c3ccc4cc(C#N)cnn34)ncc2-c2cn(CC(=O)N3CC(F)(F)C3)nn2)C1 [Compound 14, methyl (((1r,3r)-3-((2-(3-cyanopyrrolo[1,2-b]pyridazin-7-yl)-5-(1-(2-(3,3-difluoroazetidin-1-yl)-2-oxoethyl)-1H-1,2,3-triazol-4-yl)pyridin-4-yl)amino)cyclobutyl)methyl)carbamate] |
| 8.52 | > 9.00 |  | CC(C)(O)[C@H](F)Cn1cc(-c2cnc(-c3ccc4cc(C#N)cnn34)cc2NC23CCC(O)(CC2)CC3)nn1 [Compound 25, (R)-7-(5-(1-(2-fluoro-3-hydroxy-3-methylbutyl)-1H-1,2,3-triazol-4-yl)-4-((4-hydroxybicyclo[2.2.2]octan-1-yl)amino)pyridin-2-yl)pyrrolo[1,2-b]pyridazine-3-carbonitrile] |
| 7.38 | > 9.00 |  | COC(=O)Cn1cc(-c2cnc(-c3ccc4cc(C#N)cnn34)cc2NC(C)C)nn1 [Compound 56, methyl 2-(4-(6-(3-cyanopyrrolo[1,2-b]pyridazin-7-yl)-4-(isopropylamino)pyridin-3-yl)-1H-1,2,3-triazol-1-yl)acetate] |
| 7.48 | 9.00 |  | CC(=O)N1CCC(n2cc(-c3cnc(-c4ccc5cc(C#N)cnn45)cc3NC(C)C)nn2)CC1 [Compound 42, 7-(5-(1-(1-acetylpiperidin-4-yl)-1H-1,2,3-triazol-4-yl)-4-(isopropylamino)pyridin-2-yl)pyrrolo[1,2-b]pyridazine-3-carbonitrile] |
| 7.30 | > 9.00 |  | CC(C)Nc1cc(-c2ccc3cc(C#N)cnn23)ncc1-c1cn(C2CCNCC2)nn1 [Compound 43, 7-(4-(isopropylamino)-5-(1-(piperidin-4-yl)-1H-1,2,3-triazol-4-yl)pyridin-2-yl)pyrrolo[1,2-b]pyridazine-3-carbonitrile] |
|  | > 9.00 | 7.80 | COC(=O)NCC1CC(Nc2cc(-c3ccc4cc(C#N)cnn34)ncc2-c2cn(C3CC(CO)C3)nn2)C1 [Compound 9, methyl (((1R,3r)-3-((2-(3-cyanopyrrolo[1,2-b]pyridazin-7-yl)-5-(1-((1r,3R)-3-(hydroxymethyl)cyclobutyl)-1H-1,2,3-triazol-4-yl)pyridin-4-yl)amino)cyclobutyl)methyl)carbamate] |
|  | 8.70 | 7.12 | CC(=O)N[C@H]1CC[C@H](c2cn(-c3cnc(-c4ccc5cc(C#N)cnn45)cc3NC(C)C)nn2)CC1 [Compound 61, N-((1r,4r)-4-(1-(6-(3-cyanopyrrolo[1,2-b]pyridazin-7-yl)-4-(isopropylamino)pyridin-3-yl)-1H-1,2,3-triazol-4-yl)cyclohexyl)acetamide] |
| 6.52 | 7.96 |  | CNc1cc(-c2ccc3cc(C#N)cnn23)ncc1-c1cn(CC(F)(F)F)nn1 [Compound 24, 7-(4-(methylamino)-5-(1-(2,2,2-trifluoroethyl)-1H-1,2,3-triazol-4-yl)pyridin-2-yl)pyrrolo[1,2-b]pyridazine-3-carbonitrile] |
| 7.08 | 9.00 |  | COC(=O)N1CCC(n2cc(-c3cnc(-c4ccc5cc(C#N)cnn45)cc3NC(C)C)nn2)CC1 [Compound 40, methyl 4-(4-(6-(3-cyanopyrrolo[1,2-b]pyridazin-7-yl)-4-(isopropylamino)pyridin-3-yl)-1H-1,2,3-triazol-1-yl)piperidine-1-carboxylate] |
|  | 9.00 | 7.05 | 7-(4-(isopropylamino)-5-(1-propyl-1H-1,2,3-triazol-4-yl)pyridin-2-yl)pyrrolo[1,2-b]pyridazine-3-carbonitrile [Compound 54] |
| 7.10 | 8.70 |  | CNc1cc(-c2ccc3cc(C#N)cnn23)ncc1-c1cn(CCC(C)(C)O)nn1 [Compound 26, 7-(5-(1-(3-hydroxy-3-methylbutyl)-1H-1,2,3-triazol-4-yl)-4-(methylamino)pyridin-2-yl)pyrrolo[1,2-b]pyridazine-3-carbonitrile] |
| 7.21 | 9.00 |  | CC(C)Nc1cc(-c2ccc3cc(C#N)cnn23)ncc1-c1cn(CC(=O)N(C)C)nn1 [Compound 44, 2-(4-(6-(3-cyanopyrrolo[1,2-b]pyridazin-7-yl)-4-(isopropylamino)pyridin-3-yl)-1H-1,2,3-triazol-1-yl)-N,N-dimethylacetamide] |
|  | > 9.00 | 7.72 | COC(=O)NCC1CC(Nc2cc(-c3ccc4cc(C#N)cnn34)ncc2-c2cn(CC3CC(O)C3)nn2)C1 [Compound 6, methyl (((1R,3r)-3-((2-(3-cyanopyrrolo[1,2-b]pyridazin-7-yl)-5-(1-(((1r,3R)-3-hydroxycyclobutyl)methyl)-1H-1,2,3-triazol-4-yl)pyridin-4-yl)amino)cyclobutyl)methyl)carbamate] |
|  | > 9.00 | 7.92 | COC(=O)NCC1CC(Nc2cc(-c3ccc4cc(C#N)cnn34)ncc2-c2cn(C3CC(O)C3)nn2)C1 [Compound 7, methyl (((1R,3r)-3-((2-(3-cyanopyrrolo[1,2-b]pyridazin-7-yl)-5-(1-((1r,3R)-3-hydroxycyclobutyl)-1H-1,2,3-triazol-4-yl)pyridin-4-yl)amino)cyclobutyl)methyl)carbamate] |
| 8.52 | > 9.00 |  | CC(C)(O)[C@H](F)Cn1cc(-c2cnc(-c3ccc4cc(C#N)cnn34)cc2NC23CCC(N4CCOC4=O)(CC2)CC3)nn1 [Compound 35, (R)-7-(5-(1-(2-fluoro-3-hydroxy-3-methylbutyl)-1H-1,2,3-triazol-4-yl)-4-((4-(2-oxooxazolidin-3-yl)bicyclo[2.2.2]octan-1-yl)amino)pyridin-2-yl)pyrrolo[1,2-b]pyridazine-3-carbonitrile] |
|  | > 9.00 | 7.36 | COC(=O)NC[C@H]1C[C@H](Nc2cc(-c3ccc4cc(C#N)cnn34)ncc2-c2cn(C)nn2)C1 [Compound 33, methyl (((1r,3r)-3-((2-(3-cyanopyrrolo[1,2-b]pyridazin-7-yl)-5-(1-methyl-1H-1,2,3-triazol-4-yl)pyridin-4-yl)amino)cyclobutyl)methyl)carbamate] |
|  | 9.00 | 7.70 | COC(=O)NCC1CC(Nc2cc(-c3ccc4cc(C#N)cnn34)ncc2-c2cn(C3CC(CNC(=O)OC)C3)nn2)C1 [Compound 10, methyl (((1R,3r)-3-((2-(3-cyanopyrrolo[1,2-b]pyridazin-7-yl)-5-(1-((1r,3R)-3-(((methoxycarbonyl)amino)methyl)cyclobutyl)-1H-1,2,3-triazol-4-yl)pyridin-4-yl)amino)cyclobutyl)methyl)carbamate] |
|  | 8.70 | 7.70 | CC(C)(O)[C@H](F)Cn1cc(-c2cnc(-c3ccc4cc(C#N)cnn34)cc2N[C@H]2CC[C@H](c3nnc(C(F)F)o3)CC2)nn1 [Compound 3, 7-(4-(((1r,4R)-4-(5-(difluoromethyl)-1,3,4-oxadiazol-2-yl)cyclohexyl)amino)-5-(1-((R)-2-fluoro-3-hydroxy-3-methylbutyl)-1H-1,2,3-triazol-4-yl)pyridin-2-yl)pyrrolo[1,2-b]pyridazine-3-carbonitrile] |
